Experimental data taken from patent US20230009608A1, “GRK2 INHIBITORS AND USES THEREOF” (Cygnal Therapeutics, Inc., priority 2020, published 2023).

Experiments:
[1] = tested on: PAXF1657 control empty vector cell line; experiment: 7-day proliferation assay, PAXF1657 control empty vector cell line (Example 9); assay type: cell-based; details: 168 h; for GI50: 7-day compound treatment, CellTiter-Glo; for IC50: Cell Line: PAXF1657 empty vector (EV) cell line, 7-day, read-out: C: 7-day proliferation assay: IC50 GeoMean
In short: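 Cells plated at 500 per well and attached overnight. Next, 10-point inhibitor series added (30 μM-0.0002 μM, 0.3% DMSO) and a day-0 viability plate read. Then, after 3 days, medium with fresh compound. Finally, viability after 4 more days via CellTiter-Glo.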

[2] = tested on: PAXF1657 cell line stably overexpressing GRK2; experiment: 7-day proliferation assay, PAXF1657 stably overexpressing GRK2 (Example 9); assay type: cell-based; details: for GI50: 168 h, 7-day compound treatment, CellTiter-Glo; for Ratio GRK2 overexpressing cells/Empty vector cells: GI50 in GRK2 overexpressing PAXF1657 over GI50 in empty vector PAXF1657
Description: In order to identify compounds specific for GRK2, we generated two isogenic cell line pairs of the pancreatic cancer cell line PAXF1657, a pair of cells stably overexpressing GRK2 cDNA or the control empty vector and a cell line pair of PAXF1657 GRK2 knockout clonal cells versus non-targeting control clonal cells.
Proliferation Assay: Cellular anti-proliferative activity of compounds was assessed by using the pancreatic cancer cell line, PAXF1657, stably overexpressing GRK2 cDNA or the control empty vector, as well as the parental urinary bladder cancer cell line, 5637. In addition, we also took advantage of GRK2 knockout cell lines that were generated via CRISPR. Cell lines were seeded into tissue culture treated, white-walled, 96-well plates at a density of 500 cells/well in RPMI1640 media supplemented with 10% H.I. FBS and penicillin/streptomycin. Plates were incubated overnight at 37° C., 5% CO2 to allow cells to adhere to the wells. GRK2 inhibitors were added to the cells using a 10-point dilution series with a final concentration ranging from 30 μM-0.0002 μM in 0.3% DMSO. At the time of compound addition, a set of plates, that were not treated with compounds, were collected and cell viability was measured using CellTiter-Glo (Promega). CellTiter-Glo reagent was added to the designed plates and luminescence was measuring using a Biotek Synergy plate reader. The compound treated cells were incubated for 3 days at 37° C., 5% CO2. The media was then aspirated from each well and replaced with fresh media containing GRK2 inhibitors. The compound treated cells were then incubated for an additional 4 days at 37° C., 5% CO2. Cell viability was assessed and at end of the 7-day compound treatment by CellTiterGlo.

GRK2 [3] = target: T1, GRK2 (Homo sapiens, UniProt P25098); experiment: GRK2 Inhibition Assay (TR-FRET, Example 7); assay type: biochemical
T1 construct: purchased SignalChem A14-10G
T1 sequence (P25098 1-689): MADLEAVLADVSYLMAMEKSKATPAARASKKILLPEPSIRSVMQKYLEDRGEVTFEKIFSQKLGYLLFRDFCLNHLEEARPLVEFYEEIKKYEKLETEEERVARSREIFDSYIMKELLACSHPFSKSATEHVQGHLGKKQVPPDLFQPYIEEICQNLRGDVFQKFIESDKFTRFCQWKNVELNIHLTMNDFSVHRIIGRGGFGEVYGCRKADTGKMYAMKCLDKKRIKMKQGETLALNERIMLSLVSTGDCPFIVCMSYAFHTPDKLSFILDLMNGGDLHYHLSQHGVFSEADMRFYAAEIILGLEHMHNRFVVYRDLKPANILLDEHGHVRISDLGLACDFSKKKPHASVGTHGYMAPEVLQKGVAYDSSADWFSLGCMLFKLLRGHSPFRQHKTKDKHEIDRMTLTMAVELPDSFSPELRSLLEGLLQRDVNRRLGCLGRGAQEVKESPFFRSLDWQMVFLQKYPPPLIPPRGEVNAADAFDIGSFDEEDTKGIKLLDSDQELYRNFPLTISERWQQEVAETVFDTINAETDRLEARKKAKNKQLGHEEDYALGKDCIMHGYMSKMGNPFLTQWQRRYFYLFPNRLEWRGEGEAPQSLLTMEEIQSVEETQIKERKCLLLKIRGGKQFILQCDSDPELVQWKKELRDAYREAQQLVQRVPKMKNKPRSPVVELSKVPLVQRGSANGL
In short: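 GRK2 at 1 nM preincubated 30 min with compound, then reacted 90 min at room temperature with 7 μM ATP and 50 nM ULight-TopoIIα in HEPES/MgCl2/DTT buffer. Phosphorylation detected by TR-FRET after Eu anti-TopoIIα and EDTA addition, 60 min.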

GRK2 [4] = target: T1, GRK2; experiment: ADPGlo GRK2 Inhibition Assay (Example 8); assay type: biochemical
In short: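 GRK2 (15 nM 2× enzyme solution) was preincubated 15 min with compound, then reacted 180 min at room temperature with 2× mix of 20 μM ATP plus GRKtide in HEPES pH 7.5, MgCl2, Tween-20, DTT. ADP was detected by ADP-Glo luminescence. Percent inhibition was normalised to enzyme and no-enzyme controls, with dose-response curves from threefold dilutions starting at 100 μM.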

[5] = 1 nM GRK2, 7 μM ATP, TR-FRET, read-out: GRK2 IC50 (nM) (Example 7)
[6] = 7.5 nM GRK2, 10 μM ATP, ADP-Glo, read-out: GRK2 IC50 (nM) (Example 8)
[7] = Enzyme Assay B, TR-FRET (Example 7), read-out: B: Enzymatic GRK2: IC50 (nM) (Example 7)
[8] = Enzyme Assay A, ADPGlo (Example 8), read-out: A: Enzymatic GRK2: IC50 (nM) (Example 8)
[9] = TR-FRET GRK2 enzyme assay, read-out: B: Enzymatic GRK2: IC50 (nM) (Example 7)
[10] = ADPGlo GRK2 enzyme assay, read-out: A: Enzymatic GRK2: IC50 (nM) (Example 8)

| IC50 (GRK2 [3]; [5]) [nM] | IC50 (GRK2 [4]; [6]) [nM] | IC50 (GRK2 [3]; [7]) [nM] | IC50 (GRK2 [4]; [8]) [nM] | IC50 (GRK2 [3]; [9]) [nM] | IC50 (GRK2 [4]; [10]) [nM] | Compound | GI50 [1] [µM] | GI50 [2] [µM] | Ratio GRK2 overexpressing cells/Empty vector cells [2] | IC50 [1] [nM] |
| --- | --- | --- | --- | --- | --- | --- | --- | --- | --- | --- |
| – | 7.8 | – | – | – | – | COc1cccnc1CNC(=O)c1cccc(NCc2nnc(-c3ccncc3)[nH]2)c1 [compound 33] | 1.33 | 17.7 | 13.27 | – |
| 4.5 | – | – | – | – | – | CCCn1c(CNc2cc(C(=O)NCc3ccccc3C(F)(F)F)ccn2)nnc1-c1ccncn1 [compound 35, 2-(((4-propyl-5-(pyrimidin-4-yl)-4H-1,2,4-triazol-3-yl)methyl)amino)-N-(2-(trifluoromethyl)benzyl)isonicotinamide] | 1.3 | 3.22 | 2.49 | – |
| – | – | 20 | 2.1 | – | – | Cn1c(CNc2cccc(C(=O)NCc3ccc(-n4nccn4)cc3)c2)nnc1-c1ccncn1 [drawing 601] | – | – | – | > 30000 |
| – | – | 20 | 6.3 | – | – | Cn1c(CNc2cccc(C(=O)NCc3ccc(C#N)cc3)c2)nnc1-c1ccncn1 [drawing 603] | – | – | – | > 30000 |
| – | – | 29 | 5.7 | – | – | Cn1nccc1CNC(=O)c1cccc(NCc2nnc(-c3ccncn3)n2C)c1 [drawing 608] | – | – | – | > 30000 |
| – | – | 13 | 9.8 | – | – | Cc1nc(CNC(=O)c2cccc(NCc3nnc(-c4ccncn4)n3C)c2)cs1 [drawing 610] | – | – | – | > 30000 |
| – | – | 26 | 1.7 | – | – | Cn1c(CNc2cccc(C(=O)NCc3ccc4nccn4c3)c2)nnc1-c1ccncn1 [drawing 611] | – | – | – | 2930 |
| – | – | 18 | 6.5 | – | – | Cn1c(CNc2cccc(C(=O)NCc3cnn(-c4ccccc4)n3)c2)nnc1-c1ccncn1 [drawing 616] | – | – | – | > 30000 |
| – | – | 21 | 6.2 | – | – | CCS(=O)(=O)c1ccc(CNC(=O)c2cccc(NCc3nnc(-c4ccncn4)n3C)c2)cc1 [drawing 618] | – | – | – | > 30000 |
| – | – | 20 | 3 | – | – | Cc1ccn2c(CNC(=O)c3cccc(NCc4nnc(-c5ccncn5)n4C)c3)cnc2c1 [drawing 620] | – | – | – | 5600 |
| – | – | – | – | 15 | 12 | C[C@@H](NC(=O)c1cccc(NCc2nnc(-c3ccncn3)n2C)c1)c1ncccc1Cl [drawing 845] | – | – | – | 27100 |
| – | – | – | – | 11.9 | 20.2 | Cn1c(CNc2cccc(C(=O)N[C@@H]3COCc4ccccc43)c2)nnc1-c1ccncn1 [drawing 851] | – | – | – | > 800 |

The next lines start with the molecule.

| Compound | IC50 (GRK2 [3]; [5]) [nM] | IC50 (GRK2 [4]; [6]) [nM] | IC50 (GRK2 [3]; [7]) [nM] | IC50 (GRK2 [4]; [8]) [nM] | IC50 (GRK2 [3]; [9]) [nM] | IC50 (GRK2 [4]; [10]) [nM] | GI50 [1] [µM] | GI50 [2] [µM] | Ratio GRK2 overexpressing cells/Empty vector cells [2] | IC50 [1] [nM] |
| --- | --- | --- | --- | --- | --- | --- | --- | --- | --- | --- |
| Cn1c(CNc2cccc(C(=O)NCc3ccccc3C(F)(F)F)c2)nnc1-c1ccncc1 [115h, reference compound] | – | – | – | – | – | – | 8.91 | 10 | 1.12 | – |
| O=C(NCc1ccccc1C(F)(F)F)c1cccc(NCc2nnc3n2CCCOc2ccccc2-3)c1 [133a, reference compound] | – | – | – | – | – | – | 0.14 | 0.24 | 1.71 | – |
| CCCn1c(CNc2cccc(C(=O)NCc3ccccc3C(F)(F)F)c2)nnc1-c1ccncn1 [139c, reference compound] | – | – | – | – | – | – | 0.84 | 1.47 | 1.75 | – |
| Cn1c(CNc2cccc(C(=O)NCc3cccc4c3OCC4)c2)nnc1-c1ccncn1 [compound 1, N-((2,3-dihydrobenzofuran-7-yl)methyl)-3-(((4-methyl-5-(pyrimidin-4-yl)-4H-1,2,4-triazol-3-yl)methyl)amino)benzamide] | 4.7 | 27 | – | – | – | – | 1.97 | 24.3 | 12.34 | – |
| Cn1c(CNc2cccc(C(=O)NCc3cccc(F)c3)c2)nnc1-c1ccncn1 [compound 2] | 56 | 49 | – | – | – | – | 1.79 | 20.5 | 11.46 | – |
| Cn1c(CNc2cccc(C(=O)N[C@H]3CCOc4ccccc43)c2)nnc1-c1ccncn1 [compound 3] | 10 | 18 | – | – | – | – | 1.16 | 8.61 | 7.42 | – |
| Cn1c(CNc2cccc(C(=O)NCc3cccnc3C(F)(F)F)c2)nnc1-c1ccncn1 [compound 4] | 28 | 36 | – | – | – | – | 0.79 | 4.59 | 5.79 | – |
| COc1ccc(CNC(=O)c2cccc(NCc3nnc(-c4ccncn4)n3C)c2)c(F)c1 [compound 5] | 5.4 | 19 | – | – | – | – | 1.51 | 10.3 | 6.79 | – |
| COc1cccc(OC)c1CNC(=O)c1cccc(NCc2nnc(-c3ccncn3)n2C)c1 [compound 6] | 19 | 44 | – | – | – | – | 2.08 | 12.5 | 6.01 | – |
| Cn1c(CNc2cccc(C(=O)NCc3cc(F)cc(F)c3)c2)nnc1-c1ccncn1 [compound 10] | – | 15 | – | – | – | – | 1.58 | 13.7 | 8.65 | – |
| CCc1cnccc1CNC(=O)c1cccc(NCc2nnc(-c3ccncn3)n2C)c1 [compound 12] | – | 51 | – | – | – | – | 0.97 | 8.01 | 8.24 | – |
| CCn1ncc(CNC(=O)c2cccc(NCc3nnc(-c4ccncn4)n3C)c2)c1F [compound 15] | – | 18 | – | – | – | – | 4.01 | 17.7 | 4.42 | – |
| Cc1cccnc1C(C)NC(=O)c1cccc(NCc2nnc(-c3ccncn3)n2C)c1 (centres unmarked) [compound 17] | – | 10 | – | – | – | – | 2.11 | 10.3 | 4.89 | – |
| Cn1c(CNc2cccc(C(=O)NC3CCOc4c(Cl)cccc43)c2)nnc1-c1ccncn1 (centres unmarked) [compound 20] | – | 10 | – | – | – | – | 1.03 | 7.99 | 7.76 | – |
| Cc1ccnc(C(C)NC(=O)c2cccc(NCc3nnc(-c4ccncn4)n3C)c2)c1 (centres unmarked) [compound 25] | – | – | – | – | – | – | > 30 | 25.8 | – | – |
| Cn1c(CNc2cccc(C(=O)N[C@H]3COc4ccccc43)c2)nnc1-c1ccncn1 [compound 26] | – | 9.8 | – | – | – | – | 0.68 | 4.18 | 6.15 | – |
| C[C@@H](NC(=O)c1cccc(NCc2nnc(-c3ccncn3)n2C)c1)c1ncccc1Cl [compound 29] | – | 12 | – | – | – | – | 1.24 | 5.01 | 4.04 | – |
